According to the supplement of paper PMC10307832:

How the values were obtained:
Experiment in all cases: relative viability (nuclei count vs DMSO), 5 days (fraction); higher = more cells survive
[1] = test system: NCI-H1437
Procedure, shortened: (§1)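 Medians of duplicate plates are given as relative viability. That measure is the nuclei count in treated wells divided by the count in vehicle wells. Counts were taken on 4× images of lung cancer cell lines in 1536-well plates, 5 days after pin-tool dosing the day after seeding with one drug alone or a fixed anchor-drug dose plus five library-drug doses (not always all listed) in √10 steps.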

[2] = test system: NCI-H2342
Procedure, shortened: as §1

[3] = test system: NCI-H460
Procedure, shortened: as §1

[4] = test system: NCI-H838
Procedure, shortened: as §1

[5] = test system: NCI-H520
Procedure, shortened: as §1

[6] = test system: NCI-H596
Procedure, shortened: as §1

[7] = test system: EKVX
Procedure, shortened: as §1

[8] = test system: NCI-H1650
Procedure, shortened: as §1

[9] = test system: NCI-H358
Procedure, shortened: as §1

[10] = test system: NCI-H322M
Procedure, shortened: as §1

[11] = test system: NCI-H727
Procedure, shortened: as §1

[12] = test system: NCI-H1915
Procedure, shortened: as §1

[13] = test system: NCI-H522
Procedure, shortened: as §1

[14] = test system: NCI-H1792
Procedure, shortened: as §1

[15] = test system: NCI-H661
Procedure, shortened: as §1

[16] = test system: PC-3 [JPC-3]
Procedure, shortened: as §1

[17] = test system: LCLC-97TM1
Procedure, shortened: as §1

[18] = test system: NCI-H441
Procedure, shortened: as §1

[19] = test system: NCI-H23
Procedure, shortened: as §1

[20] = test system: SK-LU-1
Procedure, shortened: as §1

[21] = test system: NCI-H647
Procedure, shortened: as §1

[22] = test system: NCI-H1975
Procedure, shortened: as §1

[23] = test system: NCI-H1666
Procedure, shortened: as §1

## Cc1csc(=NC2CCCCC2)n1/N=C/c1ccc(O)c(O)c1O [MIM1] + N=C(N)NC(=N)NCCc1ccccc1 [Phenformin] (partner 250 µM)
[1]; first compound 0.2 µM
  relative viability: 0.256
[1]; first compound 0.6325 µM
  relative viability: 0.246
[1]; first compound 2 µM
  relative viability: 0.244
[1]; first compound 6.325 µM
  relative viability: 0.205
[1]; first compound 20 µM
  relative viability: 0.217
[2]; first compound 0.2 µM
  relative viability: 0.656
[2]; first compound 0.6325 µM
  relative viability: 0.543
[2]; first compound 2 µM
  relative viability: 0.584
[2]; first compound 6.325 µM
  relative viability: 0.53
[2]; first compound 20 µM
  relative viability: 0.785
[3]; first compound 0.2 µM
  relative viability: 0.497
[3]; first compound 0.6325 µM
  relative viability: 0.531
[3]; first compound 2 µM
  relative viability: 0.387
[3]; first compound 6.325 µM
  relative viability: 0.172
[3]; first compound 20 µM
  relative viability: 0.0325
[4]; first compound 0.2 µM
  relative viability: 0.543
[4]; first compound 0.6325 µM
  relative viability: 0.621
[4]; first compound 2 µM
  relative viability: 0.562
[4]; first compound 6.325 µM
  relative viability: 0.354
[4]; first compound 20 µM
  relative viability: 0.14
[5]; first compound 0.2 µM
  relative viability: 0.793
[5]; first compound 0.6325 µM
  relative viability: 0.512
[5]; first compound 2 µM
  relative viability: 0.561
[5]; first compound 6.325 µM
  relative viability: 0.447
[5]; first compound 20 µM
  relative viability: 0.323
[6]; first compound 0.2 µM
  relative viability: 0.705
[6]; first compound 0.6325 µM
  relative viability: 0.829
[6]; first compound 2 µM
  relative viability: 0.733
[6]; first compound 6.325 µM
  relative viability: 0.676
[6]; first compound 20 µM
  relative viability: 0.773
[7]; first compound 0.2 µM
  relative viability: 0.253
[7]; first compound 0.6325 µM
  relative viability: 0.144
[7]; first compound 2 µM
  relative viability: 0.213
[7]; first compound 6.325 µM
  relative viability: 0.209
[7]; first compound 20 µM
  relative viability: 0.198
[8]; first compound 0.2 µM
  relative viability: 0.461
[8]; first compound 0.6325 µM
  relative viability: 0.406
[8]; first compound 2 µM
  relative viability: 0.412
[8]; first compound 6.325 µM
  relative viability: 0.155
[8]; first compound 20 µM
  relative viability: 0.164
[9]; first compound 0.2 µM
  relative viability: 0.373
[9]; first compound 0.6325 µM
  relative viability: 0.296
[9]; first compound 2 µM
  relative viability: 0.299
[9]; first compound 6.325 µM
  relative viability: 0.135
[9]; first compound 20 µM
  relative viability: 0.118
[10]; first compound 0.2 µM
  relative viability: 0.905
[10]; first compound 0.6325 µM
  relative viability: 0.809
[10]; first compound 2 µM
  relative viability: 0.766
[10]; first compound 6.325 µM
  relative viability: 0.735
[10]; first compound 20 µM
  relative viability: 0.36
[11]; first compound 0.2 µM
  relative viability: 0.513
[11]; first compound 0.6325 µM
  relative viability: 0.559
[11]; first compound 2 µM
  relative viability: 0.481
[11]; first compound 6.325 µM
  relative viability: 0.561
[11]; first compound 20 µM
  relative viability: 0.301
[12]; first compound 0.2 µM
  relative viability: 0.421
[12]; first compound 0.6325 µM
  relative viability: 0.306
[12]; first compound 2 µM
  relative viability: 0.344
[12]; first compound 6.325 µM
  relative viability: 0.295
[12]; first compound 20 µM
  relative viability: 0.22
[13]; first compound 0.2 µM
  relative viability: 0.697
[13]; first compound 0.6325 µM
  relative viability: 0.665
[13]; first compound 2 µM
  relative viability: 0.672
[13]; first compound 6.325 µM
  relative viability: 0.52
[13]; first compound 20 µM
  relative viability: 0.571
[14]; first compound 0.2 µM
  relative viability: 0.446
[14]; first compound 0.6325 µM
  relative viability: 0.401
[14]; first compound 2 µM
  relative viability: 0.322
[14]; first compound 6.325 µM
  relative viability: 0.353
[14]; first compound 20 µM
  relative viability: 0.43
[15]; first compound 0.2 µM
  relative viability: 0.254
[15]; first compound 0.6325 µM
  relative viability: 0.28
[15]; first compound 2 µM
  relative viability: 0.274
[15]; first compound 6.325 µM
  relative viability: 0.26
[15]; first compound 20 µM
  relative viability: 0.24
[16]; first compound 0.2 µM
  relative viability: 0.458
[16]; first compound 0.6325 µM
  relative viability: 0.488
[16]; first compound 2 µM
  relative viability: 0.517
[16]; first compound 6.325 µM
  relative viability: 0.469
[16]; first compound 20 µM
  relative viability: 0.361
[17]; first compound 0.2 µM
  relative viability: 0.445
[17]; first compound 0.6325 µM
  relative viability: 0.434
[17]; first compound 2 µM
  relative viability: 0.413
[17]; first compound 6.325 µM
  relative viability: 0.312
[17]; first compound 20 µM
  relative viability: 0.142
[18]; first compound 0.2 µM
  relative viability: 0.914
[18]; first compound 2 µM
  relative viability: 0.865
[18]; first compound 6.325 µM
  relative viability: 0.543
[18]; first compound 20 µM
  relative viability: 0.203
[19]; first compound 0.2 µM
  relative viability: 0.809
[19]; first compound 2 µM
  relative viability: 0.711
[19]; first compound 6.325 µM
  relative viability: 0.598
[19]; first compound 20 µM
  relative viability: 0.2
[20]; first compound 0.2 µM
  relative viability: 0.533
[20]; first compound 0.6325 µM
  relative viability: 0.579
[20]; first compound 2 µM
  relative viability: 0.617
[20]; first compound 6.325 µM
  relative viability: 0.405
[20]; first compound 20 µM
  relative viability: 0.393
[21]; first compound 0.2 µM
  relative viability: 0.602
[21]; first compound 0.6325 µM
  relative viability: 0.431
[21]; first compound 6.325 µM
  relative viability: 0.4
[21]; first compound 20 µM
  relative viability: 0.0969
[22]; first compound 0.2 µM
  relative viability: 0.432
[22]; first compound 0.6325 µM
  relative viability: 0.403
[22]; first compound 2 µM
  relative viability: 0.39
[22]; first compound 6.325 µM
  relative viability: 0.296
[22]; first compound 20 µM
  relative viability: 0.179
[23]; first compound 0.2 µM
  relative viability: 0.578
[23]; first compound 0.6325 µM
  relative viability: 0.607
[23]; first compound 2 µM
  relative viability: 0.517
[23]; first compound 6.325 µM
  relative viability: 0.456
[23]; first compound 20 µM
  relative viability: 0.26
